We go through two compounds from article PMC2154353 (The Journal of General Physiology, 2007).

For assay [1], the target named is T1, MEC-4 homomeric channel (A713wt), coexpressed with MEC-2 (Caenorhabditis elegans, UniProt P24612).
T1 sequence (P24612 1-768): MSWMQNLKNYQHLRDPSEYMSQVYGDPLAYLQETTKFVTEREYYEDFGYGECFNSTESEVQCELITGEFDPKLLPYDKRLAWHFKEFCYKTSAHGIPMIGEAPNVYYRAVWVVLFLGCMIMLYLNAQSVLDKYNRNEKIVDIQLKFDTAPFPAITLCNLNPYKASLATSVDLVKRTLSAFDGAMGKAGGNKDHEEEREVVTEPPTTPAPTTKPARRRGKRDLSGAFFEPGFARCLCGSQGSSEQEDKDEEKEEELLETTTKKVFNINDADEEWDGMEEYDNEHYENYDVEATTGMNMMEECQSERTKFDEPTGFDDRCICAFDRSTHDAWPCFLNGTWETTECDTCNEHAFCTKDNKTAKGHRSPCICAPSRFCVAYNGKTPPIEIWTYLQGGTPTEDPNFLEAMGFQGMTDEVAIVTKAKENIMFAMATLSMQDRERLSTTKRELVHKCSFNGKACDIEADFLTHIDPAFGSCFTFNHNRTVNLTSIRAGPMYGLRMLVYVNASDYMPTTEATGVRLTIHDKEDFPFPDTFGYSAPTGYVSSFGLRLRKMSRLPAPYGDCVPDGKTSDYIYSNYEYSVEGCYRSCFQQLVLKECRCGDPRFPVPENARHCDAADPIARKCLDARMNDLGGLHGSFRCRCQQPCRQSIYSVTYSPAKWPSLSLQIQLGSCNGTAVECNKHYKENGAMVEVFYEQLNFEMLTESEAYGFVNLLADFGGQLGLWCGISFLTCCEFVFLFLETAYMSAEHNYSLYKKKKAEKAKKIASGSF
T1 sequence (Q27433 1-481 partner): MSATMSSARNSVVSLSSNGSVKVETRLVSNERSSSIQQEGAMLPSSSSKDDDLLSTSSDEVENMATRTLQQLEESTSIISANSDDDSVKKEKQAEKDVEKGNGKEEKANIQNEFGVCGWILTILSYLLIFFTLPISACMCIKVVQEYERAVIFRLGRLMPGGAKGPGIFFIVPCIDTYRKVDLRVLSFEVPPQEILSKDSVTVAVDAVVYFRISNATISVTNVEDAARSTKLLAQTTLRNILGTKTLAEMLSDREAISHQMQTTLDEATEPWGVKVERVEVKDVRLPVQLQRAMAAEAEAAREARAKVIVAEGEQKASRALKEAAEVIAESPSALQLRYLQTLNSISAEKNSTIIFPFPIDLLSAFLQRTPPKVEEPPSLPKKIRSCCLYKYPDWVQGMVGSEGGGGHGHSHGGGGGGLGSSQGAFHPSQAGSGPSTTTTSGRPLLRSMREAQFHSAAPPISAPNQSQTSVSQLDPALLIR
In words: two-electrode voltage clamp, oocytes, dose-response of current block. The class given is cell-based. For orientation: Two-electrode voltage clamp is typically applied to oocytes expressing channels or transporters.

Assay [2] addresses T2, MEC-4 homomeric channel (A713wt), coexpressed with MEC-2 (Caenorhabditis elegans, UniProt P24612, A713T).
T2 sequence (P24612 1-768 A713T): T1 sequence (P24612 1-768)
T2 sequence (Q27433 1-481 partner): T1 sequence (Q27433 1-481 partner)
The description is as above. The class given is cell-based.

In the case of `N=C(N)c1ccccc1` [benzamidine], the inhibitory constant (Ki) (usually a measure of affinity in units of concentration, obtained from inhibition or displacement) in assay [1] was determined as 108 ± 3 µM; in assay [2], 196 ± 40 µM.
Consider `NC(=NCc1ccccc1)NC(=O)c1nc(Cl)c(N)nc1N` [benzamil], for which the Ki was 0.15 ± 0.01 µM in assay [1] and 0.83 ± 0.14 µM in assay [2].
